Measurements from patent US20070027190A1, “Antibacterial fab i inhibitors” (priority 2003, published 2007).
In brackets after ≈: the same amount, converted by molar mass. Where two headings read alike, the source gives them in different places.

Experiments:
[1] = system: methicillin resistant Staphyloccocus aureus (MRSA, strain ATCC 700699); assay: MIC against methicillin resistant S. aureus (NCCLS dilution); type: cell-based; details: Staphylococcus aureus, serial two-fold dilutions, 96-well
Procedure: The sensitivity of methicillin resistant Staphyloccocus aureus (MRSA, strain ATCC 700699, American Type Culture Collection, Manassas, Va.) to the disclosed fabI inhibitors was followed by measuring the minimal inhibitory concentration (MIC) at varying inhibitor levels. This was performed according to NCCLS (National Center for Clinical Laboratory Standards) recommendations (NCCLS, 1997, METHODS FOR DILUTION ANTIMICROBIAL SUSCEPTIBILITY TESTS FOR BACTERIA THAT GROW AEROBICALLY, 4th ed.; approved standard. NCCLS document M7-A4. NCCLS, Wayne, Pa.), in 100 μl volume in 96-well format, with serial two-fold dilutions of drug concentration.

E. coli fabI = target: T1, E. coli fabI (Escherichia coli, UniProt P0AEK4); assay: fabI kinetic assay (NADH absorption at 340 nm, crotonoyl-CoA substrate); type: biochemical
T1 construct: made in house; host or cells: E. coli BL21(DE3)
Procedure: In order to perform more detailed kinetic assays on the disclosed compounds, additional purifed fabI was needed. The E. coli fabI gene was cloned into the pET30a expression vector (Novagen, Inc., Madison, Wis.) and expressed in E. coli BL21(DE3) cells. The purification procedure utilized chromatography with Q-sepharose, blue resin, and HA resin as follows.
Each cell pellet was suspended in a 4 fold-volume of lysis buffer (50 mM KH2PO4 pH 8.0, 100 mM NaCl, 2 mM ethylene glycol tetra-acetic acid (EGTA), and 10% glycerol). Cells were broken by passage through a Microfludics cell disrupter 4 times, and the cell lysate was centrifuged at 30,000×g for 20 minutes. The supernatant was applied to a Q-sepharose column pre-equilibrated in a buffer composed of 10 mM Tris-HCl pH 8.0, 0.1 mM EGTA, 1 mM phenylmethylsulfonylfluoride (PMSF), 100 mM NaCl, 10% glycerol, 0.1% β-mercaptoethanol, and 0.02% Brij 35. fabI was eluted with a NaCl gradient (0.1-1M) in the equilibration buffer. The major peak fractions were pooled and concentrated, then dialyzed overnight at 4° C. in 2 L of dialysis buffer (10 mM Tris-HCl pH 7.5, 0.1 mM EGTA, 0.1 mM PMSF, 10% glycerol, 0.1% β-mercaptoethanol, and 0.02% Brij 35). The dialyzed solution was centrifuged at 3,000×g for 20 minutes, and the supernatant was loaded on a blue resin column pre-equilibrated in a buffer composed of 10 mM Tris-HCl pH 7.5, 0.1 mM EGTA, 1 mM PMSF, 50 mM NaCl, 10% glycerol, 0.1% β-mercaptoethanol, and 0.02% Brij 35. fabI was eluted with the equilibration buffer containing NaCl (gradient 50˜1000 mM). The major peak fractions were pooled and dialyzed overnight at 4° C. in 2 L of the equilibration buffer as described above. Then the dialyzed solution was centrifuged at 3,000×g for 20 minutes, and the supernatant was further purified on a hydroxyapatite column pre-equilibrated in a buffer consisting of 20 mM KH2PO4 pH 8.0, 0.1 mM EGTA, 0.1 mM PMSF, 10% glycerol, 0.1% β-mercaptoethanol, and 0.02% Brij 35. fabI was eluted with a gradient of KH2PO4 up to 500 mM. The peak fractions were pooled and dialyzed in storage buffer (10 mM MOPS pH7.0, 150 mM NaCl, 0.1 mM EGTA, 50% glycerol, 0.02% Brij 35), then stored at −20° C.
The kinetic assay was used to confirm the activity of compounds identified by the single-point assay and screen and to measure the IC50 of compounds which inhibit fabI. It was performed in a 96 well microtiter dish. The final concentrations of each component in each 50 μl reaction are as follows—sodium phosphate pH 7.5, 100 mM; NADH, 200 uM; dithiothreitol (DTT), 1 mM; fabI, 3 ug/ml; crotonoyl-CoA, 0.8 mM.
A 2 ul volume of each compound to be tested was loaded into each well, followed by 30 ul Buffer A (sodium phosphate pH7.5, 100 mM; DTT, 1 mM; fabI, 5 ug/ml, obtained as described below). For IC50 measurements, the compound was tested in serial dilution. The reaction was initiated by adding 20 ul Buffer B (sodium phosphate pH7.5, 100 mM; NADH, 500 uM; DTT, 1 mM; and the substrate, crotonoyl-CoA, 2 mM). The reaction was monitored for 5.5 minutes on a spectrometer by measuring absorption at 340 nm. The rate of reduction of NADH in each reaction well was collected and the percentage inhibition was calculated by using SOFTmax® PRO software (Molecular Devices, Sunnyvale, Calif.). The percentage of inhibition of each compound was calculated according to following formula: Percentage Inhibition=100*(rate in the presence of compound-rate of negative control)/(rate of positive control-rate of negative control)
The negative control was the reaction of fabI in the presence of 2% DMSO but no inhibitory compounds, and the positive control was the mixture of the all reaction components excluding fabI.

[2] = system: fabI (acetate incorporation into fatty acids) in S. aureus strain ATCC 700699; assay: 14C acetate incorporation into fatty acids in S. aureus; type: cell-based; details: 0.25x-2x MIC; 0-30 min at 37° C.; FIG. 1
Procedure: Radioactive (14C) acetic acid was added to 0.4 uCi/ml. After incubation at 37° C. for 0, 5, 10, 15, and 30 minutes, samples were taken, and cells were added to ice cold 10% trichloroacetic acid (TCA) for 30 min. Next, cells were filtered (Millipore MultiScreen-FC filters), washed 2× with 200 ul and 1× with 100 ul cold 10% TCA followed by 2× with 200 ul and 1× with 100 ul cold water. The filters were added to 5 ml scintillation fluid and counts per minute were measured in a scintillation counter. The % inhibition of acetate incorporation into fatty acids was determined by comparison to a control consisting of cells not treated with inhibitor.

[3] = system: strain of Staphylococcus aureus that under-expresses a fabI gene under control of a regulated promoter; assay: MIC in IPTG-regulated fabI under-expressing S. aureus strain; type: cell-based
Excerpt: In general, a bacterial strain which is under-producing the target of interest will be more sensitive to test compounds than a wild-type strain if the compound is acting via inhibition of that target. Accordingly, a strain of Staphylococcus aureus that under-expresses a fabI gene under control of a regulated promoter was constructed.
First, the endogenous S. aureus fabI gene was replaced with a drug-resistance marker (erythromycin-resistance, erm^r) in a two-step allele-replacement procedure (see F. Fan et al., Plasmid, 2001, 46: 71-75). About 1 Kb of DNA sequence flanking each side of the S. aureus fabI gene (SwissProt Q9RMI3; M. Kuroda et al., Lancet 2001, 357:1225-1240) was PCR-amplified from genomic DNA, ligated to an erythromycin-resistance cassette by cross-over PCR (A. J. Link et al., J. Bacteriol., 1997, 179: 6228-6237), and cloned into an allele-replacement suicide vector carrying a kanamycin-resistance marker (kan^r) and the sacB gene encoding levansucrase. This allele-replacement plasmid was introduced by electroporation into an S. aureus host strain carrying the E. coli lactose operon repressor (lacI) and a lac-promoter driving T7 RNA polymerase production from the chromosome. Selection for kan^r yielded cells containing the entire plasmid by means of a single cross-over recombination. […]

T1 sequence (P0AEK4 whole entry): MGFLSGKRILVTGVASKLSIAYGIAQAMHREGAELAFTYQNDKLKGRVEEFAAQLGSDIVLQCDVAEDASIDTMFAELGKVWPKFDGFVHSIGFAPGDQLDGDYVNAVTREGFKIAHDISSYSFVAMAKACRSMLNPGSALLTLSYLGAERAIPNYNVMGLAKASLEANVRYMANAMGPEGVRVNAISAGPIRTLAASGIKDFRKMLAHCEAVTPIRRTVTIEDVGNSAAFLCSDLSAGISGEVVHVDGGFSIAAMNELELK

Compound	MIC [1]	IC50 (E. coli fabI)	inhibition of acetate incorporation into fatty acids (activity of fabI) [2]	MIC ([3]; read-out: minimum inhibitory concentration (MIC), fabI regulated by IPTG, before the inducer (IPTG) level was reduced)	MIC ([3]; read-out: minimum inhibitory concentration (MIC), fabI regulated by IPTG, inducer (IPTG) level reduced)	IC50 (E. coli fabI; purified E. coli fabI 3 ug/ml, NADH 200 uM, crotonoyl-CoA 0.8 mM, pH 7.5, read-out: IC50)
CC(Sc1nc(-c2cccs2)cc(-c2cccs2)c1C#N)c1ccc(C(=O)O)cc1 (centres unmarked) [F]	0.75 µg/mL (≈ 1.67 µM)	3 µM				
CC(C)NC(=O)CSc1nc(-c2cccs2)cc(-c2ccc(F)cc2)c1C#N [B]	> 64 µg/mL	12 µM				
N#Cc1c(-c2cccs2)cc(-c2cccs2)nc1SCCc1ccc(C(=O)O)cc1 [E]	0.75 µg/mL (≈ 1.67 µM)	3 µM				
COc1ccc(NC(=O)CSc2nc(-c3cccs3)cc(-c3ccc(F)cc3)c2C#N)cc1OC [D]	> 64 µg/mL	9.2 µM				
CC(C)NC(=O)CSc1nc(-c2cccs2)cc(-c2ccc(Cl)cc2)c1C#N [N]	> 64 µg/mL	46 µM				
N#Cc1c(-c2cccs2)cc(-c2cccs2)nc1SCc1ccc(C(=O)O)cc1 [Compound A]	2 µg/mL (≈ 4.6 µM)	4 µM	marked inhibition	8 µg/mL	4 µg/mL	
N#Cc1c(-c2cccs2)cc(-c2cccs2)nc1SCCC(=O)O [P]						87 µM
N#Cc1c(-c2cccs2)cc(-c2cccs2)nc1SCc1ccc(CC(=O)O)cc1 [H]	4 µg/mL (≈ 8.92 µM)	25 µM				
N#Cc1c(-c2cccs2)cc(-c2cccs2)nc1SC(C(=O)O)c1ccccc1 (centres unmarked) [Compound C]	32 µg/mL (≈ 73.6 µM)	12.3 µM				
N#Cc1c(-c2cccs2)cc(-c2cccs2)nc1SCc1cccc(C(=O)O)c1 [G]	1.5 µg/mL (≈ 3.45 µM)	6 µM				
COc1ccc(-c2cc(-c3ccco3)c(C#N)c(SCc3ccc(C(=O)O)cc3)n2)cc1 [I]	8 µg/mL (≈ 18.1 µM)	25 µM				
N#Cc1c(-c2ccc(Cl)cc2)cc(-c2cccs2)nc1SCC(N)=O [Q]	> 64 µg/mL	33 µM				
